Reference: paper PMC6396489 (Cell Communication and Signaling : CCS, 2019)
Entries after “also recorded” stand apart in the source; their conditions may differ.

Experiments:
[1] = test system: NIH3T3 cells; assay: Immunofluorescence analysis for membrane ruffling; assay type: cell-based; conditions: for effect of pre-treatment on peripheral ruffles in response to GroPIns4P: with 50 μM GroPIns4P for 5 min
Description: NIH3T3 and Raw 264.7 cells were cultured in DMEM supplemented with 2 mM L-glutamine, 50 U/mL penicillin, […] streptomycin, and 10% CS or heat-inactivated FBS (30 min at 55 °C), respectively. NIH3T3 cells were transfected with different plasmids using the Lipofectamine LTX/plus reagent according to the manufacturer’s instructions. For immunofluorescence experiments, NIH3T3 cells were seeded onto glass coverslips in 24-well plates at a concentration suitable for 70% confluence without transfection or 50% confluence in the case of Lipofectamine-based cell transfection. In the latter, approximately 24 h after seeding, NIH3T3 cells were transiently transfected with different plasmids with the Lipofectamine LTX/plus reagent following the manufacturer’s instructions. Before treatments, NIH3T3 cells were serum-starved in DMEM with 2 mM glutamine, 50 U/mL penicillin and streptomycin for 16–20 h. The cells were then treated with different stimuli and/or inhibitors, as indicated in the text and/or Figure legends. Addition of exogenous GroPIns4P was at 50 μM (unless otherwise indicated), a concentration eliciting an intracellular concentration of about 1.5 μM, as calculated from the Nernst equation (with T = 300 K, z = − 3, and Veq = − 30 mV, an average value for cultured, non-excitable cells).
For ruffle assessment after treatments, immunofluorescence labelling and morphological analysis of the cells were performed as previously described in a double-blind fashion. In brief, the assessment was based on a null score (zero) for the absence of the feature, followed by a score of one or two according to the level of response of each individual cell, where one indicate that ruffling was confined to one area of the cell (< 25% of the cell circumference), and two indicate that two or more discrete areas of the cell contained ruffles. The cell phenotypes were quantified by counting 150 cells in each sample. The data were then expressed as percentage scores (±SD) for each treatment response compared with its respective control. Scoring of the control cells was performed in the same way to evaluate the presence of the features of interest in untreated cells.

[2] = test system: NIH3T3 cells; assay: Wound-healing assay; assay type: cell-based; conditions: for effect on GroPIns4P-stimulated wound closure: 50 μM GroPIns4P
Description: To perform the wound-healing assay, NIH3T3 cells were seeded in 6-well tissue culture plates to a final density of 3 × 10^5 cells/well and maintained at 37 °C and 5% CO2 for 24 h until confluence before being starved overnight in DMEM containing 1% bovine serum. The cell monolayer was wounded by scratching with a 10 μL standard sterile pipette tip. The scratched monolayer was rinsed twice with DMEM containing 1% bovine serum to remove cell debris and incubated with or without 50 μM GroPIns4P. […] In detail, the input image was processed by applying a Sobel edge detector [26], obtaining a gradient image. A threshold process was then performed on the gradient image to obtain the foreground corresponding to the wound area. Particularly, all of the pixels of the gradient image with values less than the threshold θ were assumed to be pixels of the foreground (experimentally, θ is set to 4). Finally, procedures based on morphological operations were used to remove small regions and to fill holes of the wound area to complete detection and analysis.

[3] = biological target: T1, Shp1 (Homo sapiens, UniProt P29350); assay: Isothermal titration calorimetry, Shp1 WT; assay type: binding; conditions: Ins4P 50 µM (Fig. S2)
T1 construct: the C-terminal truncated form of human Shp1 cDNA (His-Shp1; amino acids 1–529); made in house; host or cells: E. coli BL21(DE3)
T1 sequence (P29350 1-529 isoform P29350-3): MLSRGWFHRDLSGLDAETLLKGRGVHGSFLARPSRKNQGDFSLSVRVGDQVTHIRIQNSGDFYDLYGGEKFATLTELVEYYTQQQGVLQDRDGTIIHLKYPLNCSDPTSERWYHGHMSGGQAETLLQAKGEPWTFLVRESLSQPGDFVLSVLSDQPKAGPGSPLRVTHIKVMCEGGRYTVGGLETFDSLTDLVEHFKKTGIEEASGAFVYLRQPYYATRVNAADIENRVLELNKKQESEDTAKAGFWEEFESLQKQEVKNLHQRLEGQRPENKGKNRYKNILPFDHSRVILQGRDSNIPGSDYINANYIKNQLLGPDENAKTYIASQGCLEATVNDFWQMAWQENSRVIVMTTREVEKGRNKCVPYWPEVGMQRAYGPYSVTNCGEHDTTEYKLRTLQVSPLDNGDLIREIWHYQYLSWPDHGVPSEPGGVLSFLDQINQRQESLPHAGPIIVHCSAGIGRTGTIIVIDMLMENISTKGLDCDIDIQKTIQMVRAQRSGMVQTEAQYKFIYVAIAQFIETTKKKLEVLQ
Description: ITC measurements were performed by using a Nano-ITC III (TA instruments, New Castle, DE, USA) with a reaction cell volume of 1 ml kept at 25 °C. A protein solution of 10 μM was titrated into the calorimetric cell with a solution of 50–100 μM of the ligand GroPIns4P (Ins4P) in the syringe. A sequence of 16 injections of 15 μL volume was programmed with a stirring speed of 250 rpm at 500 s intervals. Protein samples were prepared with protein solutions at 25 °C in 20 mM Tris buffer pH 7.4 with 50 mM NaCl and 1 mM TCEP. To minimise the differences in buffer composition and pH between cell and syringe, both ligand and protein solutions were prepared with the same batch of buffer. The heat of dilution of the GroPIns4P into the buffer solution was measured in a separate experiment and appropriate corrections were made. The heat evolved after each ligand injection was obtained from the integral of the calorimetric signal. Raw data were integrated, corrected for non-specific heats and normalized for concentration. The equilibrium dissociation constant (KD), binding enthalpy (ΔbH) and binding stoichiometry (n) were obtained by nonlinear regression of the experimental data using a model of independent binding sites, by means of the NanoAnalyze software. Experiments were performed in duplicate.

[4] = test system: actin cytoskeleton; design: method as in PMID 12589050; conditions: cited from earlier work

Compound: O=C1C=CC(=O)C(c2cc(Cl)ccc2Cl)=C1 [TPI-1]
- effect of pre-treatment on peripheral ruffles in response to GroPIns4P [1]: strongly impair
- reduction of EGF-induced cell migration ([2]; 25 μM, EGF 10 ng/ml): 50%
- effect on GroPIns4P-stimulated wound closure ([2]; pre-treatment 25 μM): completely abrogated

Compound: PDGF
- effect of Shp1-C455S overexpression on PDGF-induced ruffles ([1]; 10 ng/ml PDGF): not affected
- increase in ruffles versus the control ([1]; 10 ng/ml PDGF for 5 min, positive control): 3.5–4 fold

Compound: EGF: Epidermal growth factor
- cell migration ([2]; 10 ng/ml EGF): significant increase

Compound: CCCCC/C=C\C/C=C\C/C=C\C/C=C\CCCC(=O)O [arachidonic acid]
- effect on EGF-induced cell motility ([2]; 10–50 μM): did not affect
- effect when combined with the PLA2 inhibitor in EGF-stimulated cells ([2]; EGF 10 ng/ml, cPLA2α inhibitor, arachidonic acid): minor inhibitory effect

Compound: O=P(O)(O)OC1[C@@H](O)[C@@H](O)C(O)[C@H](O)[C@H]1O (stereo partly shown) [Ins4P, Inositol 4-phosphate, reference compound]
- binding to Shp1 by ITC [3]: did not indicate any specific binding; also recorded: no binding was resolved
- effect on actin cytoskeleton organisation [4]: no effect

Compound: O=S(=O)(O)c1ccc2cc(N=Nc3cc(S(=O)(=O)O)c4cccnc4c3O)ccc2c1 [NSC-87877]
- effect of pre-treatment on peripheral ruffles in response to GroPIns4P [1]: strongly impair
- reduction of EGF-induced cell migration ([2]; 100 μM, EGF 10 ng/ml): ~100%
- effect on GroPIns4P-stimulated wound closure ([2]; pre-treatment 100 μM): completely abrogated
